What all share (assay): NCI-60 cell line screen, 48 h
Test [1] deals with M14.
Test [2] concerns A498.
Test [3] has as its system HOP-62.
The subject of test [4] is K562.
Test [5] concerns OVCAR-8.
For test [6], the system named is Malme-3M.
The subject of test [7] is ACHN.
Test [8] deals with KM12.
Test [9] relates to OVCAR-4.
Test [10] has as its system LOX IMVI.
Test [11] relates to SNB-75.
Test [12] has as its system EKVX.
The subject of test [13] is SK-MEL-28.
In test [14] the test system is NCI-H522.
Test [15] deals with 786-0.
Test [16] has as its system A549.
Test [17] has as its system HCT-116.
Test [18] concerns CCRF-CEM.
The test system of test [19] is SN12C.
Test [20] relates to HCC 2998.

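Five concentrations, 48 hours, 96-well plates. GI50: concentration for 50% inhibition of growth.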 Activity calls are given as the source filed them. No stated cut-off is given here; in the data, active = GI50 up to about 1.1 µM and inactive = higher.

12 compounds from ChEMBL document CHEMBL1201862, “PubChem BioAssay data set” (2004) can be followed below.

`Nc1nc(O)c2[nH]cnc2[n+]1[O-]`: the GI50 in test [1], in test [2], in test [3], in [4], in [5] and in test [6] was > 100 µM (inactive) throughout. In addition, the GI50 in [7], in test [8], in test [9], in [10], in [11] and in test [12] was > 100 µM (inactive) each time. The GI50 in test [13], in test [14], in test [15], in test [16], in test [17] and in test [18] was > 100 µM (inactive) throughout. Also, the GI50 in [19] is 40.5 µM (inactive).
`COc1cccc(C2c3cc4c(cc3OC(N3CCOCC3)C2C)OCO4)c1` (stereo not given): the GI50 was 7.05 µM (inactive) in test [1]; 16.2 µM (inactive) in [3]; 3.1 µM (inactive) in test [4]; 23.4 µM (inactive) in [5]; 10.5 µM (inactive) in [6]; 14.7 µM (inactive) in [7]. Also, the GI50 in [9] was 14.7 µM (inactive); in test [10], 5.28 µM (inactive); in test [11], 28.3 µM (inactive); in test [12], 26.7 µM (inactive); in test [14] it was 8.24 µM (inactive); in test [16], 12.9 µM (inactive). In addition, the values for the GI50 in [17] and in test [19] were 13.2 µM (inactive) and 24.3 µM (inactive), respectively.
Take `CCN(CC)CCO[Si](OCCN(CC)CC)(OCCN(CC)CC)OCCN(CC)CC`: the GI50 in [1], in test [5], in test [6], in test [8], in test [9] and in test [10] was > 100 µM (inactive) in each case. Besides, the GI50 is > 100 µM (inactive) in [20]; > 100 µM (inactive) in [11]; > 100 µM (inactive) in [12]; > 100 µM (inactive) in [13]; > 100 µM (inactive) in test [16]; > 10 µM (inactive) in test [17]. Besides, the GI50 in test [19] is > 100 µM (inactive).
For the compound `CCOC(=O)C1(C#N)C(c2ccccc2)CC(O)(c2ccc(OC)cc2)C(C(=O)c2ccc(OC)cc2)C1c1ccccc1` (stereo not given), the GI50 in test [1], in [3], in test [4], in test [5], in test [6] and in [7] was > 100 µM (inactive) throughout. Moreover, the GI50 was > 100 µM (inactive) in test [8]; > 100 µM (inactive) in [9]; > 100 µM (inactive) in test [10]; > 100 µM (inactive) in test [20]; 27.7 µM (inactive) in [11]; > 100 µM (inactive) in [12]. Also, the GI50 in test [13], in test [14], in test [15], in test [16], in test [17] and in test [18] was > 100 µM (inactive) throughout. Besides, the GI50 in [19] is > 100 µM (inactive).
`CCc1ncc(C(C)(O)c2ccccc2)n1Cc1ccccc1` (stereo not given): the GI50 in [1] is 0.294 µM (active); in test [3], < 0.01 µM (active); in test [4], 33.4 µM (inactive); in test [5] it was 36.1 µM (inactive); in [6], 41 µM (inactive); in test [7], 82.2 µM (inactive). For the same compound, the GI50 in test [8] was 31 µM (inactive); in test [9], 35.8 µM (inactive); in [10], 29.8 µM (inactive); in test [11], 48.6 µM (inactive); in test [12] it was 56.2 µM (inactive); in [13], 33.4 µM (inactive). Besides, the GI50 was 42.1 µM (inactive) in test [14]; 35.5 µM (inactive) in test [16]; 0.124 µM (active) in [17]; 48.9 µM (inactive) in test [18]; 21.7 µM (inactive) in [19].
In the case of `COc1cc2c(cc1OC)C1(COc3cc(O)c(O)c(O)c3C1=O)C2` (stereo not given), the GI50 in test [1], in test [2], in test [3], in [4], in test [5] and in [6] was > 50 µM (inactive) each time. The GI50 is > 50 µM (inactive) in [7]; > 50 µM (inactive) in [8]; > 50 µM (inactive) in test [9]; > 50 µM (inactive) in test [10]; 8.65 µM (inactive) in [11]; > 50 µM (inactive) in [13]. Besides, the GI50 in [14], in test [15], in [16], in [17], in [18] and in test [19] was > 50 µM (inactive) each time.
Consider `CC1=CC(=O)CC2(C)CCC(C(C)CC(=O)CC(C)C)CC12` (stereo not given), for which the GI50 in [1] is 17.2 µM (inactive); in [2], > 100 µM (inactive); in test [4], 24.5 µM (inactive); in [5] it was 24.5 µM (inactive); in test [6], 24.9 µM (inactive); in [7], 17.4 µM (inactive). The GI50 is 19 µM (inactive) in [8]; > 100 µM (inactive) in [9]; 18.9 µM (inactive) in [10]; > 100 µM (inactive) in [11]; 48.9 µM (inactive) in test [12]; 26 µM (inactive) in test [13]. The GI50 in test [14] was 15.1 µM (inactive); in test [15] it was 16.4 µM (inactive); in test [16] it was 17.8 µM (inactive); in test [17], 16.1 µM (inactive); in test [18], 23.9 µM (inactive); in [19], 17.7 µM (inactive).
Consider `C=CCNC(=O)N(CCC)CCCC(NC(C)=O)C(=O)NCc1ccccc1` (stereo not given), for which the GI50 in test [1], in test [2], in test [3], in test [4], in test [5] and in test [6] was > 100 µM (inactive) each time. Besides, the GI50 in test [7], in test [8], in test [9], in [10], in test [11] and in [12] was > 100 µM (inactive) each time. For the same compound, the GI50 in [13], in test [14], in test [15], in test [16], in test [18] and in test [19] was > 100 µM (inactive) throughout.
Take `CCOC(=O)Cc1cc(OC)c(OC)cc1/C(Cl)=C(\CO)c1ccc(OC)c(OC)c1`: the GI50 was > 100 µM (inactive) in [1]; > 100 µM (inactive) in test [4]; > 100 µM (inactive) in [5]; > 100 µM (inactive) in test [6]; 81.1 µM (inactive) in test [7]; 44.4 µM (inactive) in test [9]. Besides, the GI50 in test [10] was 87.9 µM (inactive); in test [11], 23.8 µM (inactive); in [12], > 100 µM (inactive); in test [13], 78 µM (inactive); in [16], > 100 µM (inactive); in test [17] it was > 100 µM (inactive). In addition, the GI50 in [18] and in [19] was > 100 µM (inactive) in each case.
As to `CN(C)CCCNC(=S)S`, the GI50 in [1], in test [2], in test [3], in test [4], in [5] and in test [6] was > 100 µM (inactive) throughout. The GI50 in test [7], in [8], in [9], in test [10], in test [12] and in test [13] was > 100 µM (inactive) in each case. The GI50 in test [14], in test [15], in test [16], in test [17], in [18] and in test [19] was > 100 µM (inactive) throughout.
`Nc1ncnc2c1ncn2C1C(O)C=C(CO)C1O` (stereo not given): the GI50 in test [3], in test [5], in [6], in test [8], in test [9] and in test [10] was > 625 µM (inactive) each time. Also, the GI50 in test [20], in [16], in test [17] and in [19] was > 625 µM (inactive) throughout.
Take `O=c1c2cc(I)ccc2nc(-c2cccs2)n1O`: the GI50 in [1] was 64.3 µM (inactive); in test [3], 48.9 µM (inactive); in test [4], 48.3 µM (inactive); in [5], 38.1 µM (inactive); in test [7] it was 46.3 µM (inactive); in test [8], 32.6 µM (inactive). The GI50 in test [9] is 31.6 µM (inactive); in test [10], 28.1 µM (inactive); in test [20], 30 µM (inactive); in test [12], 26.4 µM (inactive); in test [13], 65.8 µM (inactive); in [14], 37.5 µM (inactive). Also, the GI50 is 55.2 µM (inactive) in test [15]; 22.6 µM (inactive) in [16]; 38.8 µM (inactive) in test [17]; 27.7 µM (inactive) in test [18]; 45 µM (inactive) in test [19].
